Laboratory results from patent publication US20220057405A1, “CELLS AND METHODS FOR EVALUATING THE ACTIVITY OF ORGANIC ANION TRANSPORTING POLYPEPTIDE 2A1 (OATP2A1)” (ABSORPTION SYSTEMS LLC, priority 2019, published 2022).
Like-named read-outs stand apart in the source and are kept apart here.

How the values were obtained:
OATP2A1 [1] = molecular target: T1, OATP2A1 (Homo sapiens, UniProt Q92959); test: Cellular uptake assay with fluorescent substrate of OATP2A1 in HEK293-OATP2A1 cells; format: cell-based
Method: Key reagents—6-Carboxyfluorescein (6-CF) was purchased from Toronto Research Chemicals (Cat. No. C178325); 5,6-carboxy-SNARF-1 (5,6-Carboxy-seminaphthorhodafluor-1) was obtained from Thermo Fisher Scientific (Cat. No. C1270).
(§1) Assay procedure—HEK293-OATP2A1 cells and the vector control HEK293-VC-Neo cells were plated at 250,000 cells per well on 24 well poly-D-Lysine coated (BioCoat™) plates (Corning) in complete DMEM medium and grown for 48 hrs at 37 C.
(§2) […] For incubations with 6-CF, 1×HBSS pH 5.6 was used without pH adjustment. For the uptake of 5,6-carboxy-SNARF-1, the pH of 1×HBSS was adjusted to 7.4 with Bis-Tris/HCl. After the incubation, the media was aspirated, the cells were washed twice with ice-cold HBSS and lysed with 450 μL of the lysis buffer without the protease inhibitors. Two 150-μL samples from each well of the 24-well plates were taken and transferred into separate wells on black opaque 96-well Opti-plates (PerkinElmer). Fluorescence intensities were measured using λex 483(14) nm and λem 530(30) for 6-CF and λex 576(15) nm and λem 640(10) for 5,6-carboxy-SNARF-1 on a CLARIOstar® multimode microplate reader (BMG LABTECH). 20 μL of the samples used for fluorescence measurement were transferred into clear polystyrene flat-bottom 96-well plates (Thermo Fisher Scientific) and protein concentration was determined.
(§3) Concentrations of the fluorescent substrates of OATP2A1 in cell lysates were determined by measuring fluorescence intensities of the lysates and calculating concentrations of either 6-CF or 5,6-carboxy-SNARF-1 using linear calibration curves obtained from fluorescence intensities of the standard solutions of the fluorescent probes prepared in the same lysis buffer on the same 96-well assay plate. In order to account for differences in cell densities between the wells, protein concentration in the lysates was measured and used for calculating normalized uptake of the fluorescent substrates as follows:
(§4) The IC50 values were calculated from non-linear 4-parameter fit of the % Inhibition values vs. concentration of the inhibitors using GraphPad Prism 5 software. The same software was used for obtaining KM and Vmax values from a non-linear fit of the rate vs. substrate concentration fit into classic Michaelis-Menten equation: […]
Where: • CS is the substrate concentration in cell lysate • CP is the protein concentration in cell lysate • NUTC is the normalized uptake of the substrate in the presence of test article or inhibitor • NUHEK293-VC-Neo is the uninhibited (0.1% DMSO) normalized uptake by vector control cells • NUHEK293-OAM2A1 is the uninhibited (0.1% DMSO) normalized uptake by HEK293-OATP2A1 cells • Vt is the rate of the substrate uptake expressed as Normalized Uptake • Vmax is the calculated maximal rate of the substrate uptake by HEK293-OATP2A1 cells • S is the concentration of the fluorescent substrate of OATP2A1 • KM is the calculated Michaelis constant.

HEK293-VC-Neo cells = test: Cellular uptake of fluorescent substrate by vector control cells; format: cell-based, human; details: first 30 min of the assay (FIG. 6A, pH 7.5)
Method: as §1
as §2, with “Two 150-μL samples from each well of the 24-well plates were taken and transferred into separate wells on black opaque 96-well Opti-plates (PerkinElmer).” left out
as §3, with “In order to account for differences in cell densities between the wells, protein concentration in the lysates was measured and used for calculating normalized uptake of the fluorescent substrates as follows:” left out

OATP2A1 [2] = molecular target: T1, OATP2A1; details: published potencies of the OATP2A1 inhibitors; read-out: IC50, Literature (Kamo et al., J Pharma Sci, 2017); cited from earlier work
OATP2A1 [3] = molecular target: T1, OATP2A1; test: OATP2A1 inhibition assay, cellular uptake of 6-CF with HEK293-OATP2A1 cells; format: cell-based; details: 6-CF substrate, pH 5.5
Method: as §1
(§5) Cellular uptake of the fluorescent substrates 6-CF and 5,6-carboxy-SNARF-1 was assessed by incubating the HEK293-OATP2A1 and HEK293-VC-Neo cells with 10 μM 6-CF and 5 μM 5,6-carboxy-SNARF-1 for 15 and 20 min, correspondingly. For incubations with 6-CF, 1×HBSS pH 5.6 was used without pH adjustment. For the uptake of 5,6-carboxy-SNARF-1, the pH of 1×HBSS was adjusted to 7.4 with Bis-Tris/HCl. After the incubation, the media was aspirated, the cells were washed twice with ice-cold HBSS and lysed with 450 μL of the lysis buffer without the protease inhibitors. Two 150-μL samples from each well of the 24-well plates were taken and transferred into separate wells on black opaque 96-well Opti-plates (PerkinElmer). Fluorescence intensities were measured using λex 483(14) nm and λem 530(30) for 6-CF and λex 576(15) nm and λem 640(10) for 5,6-carboxy-SNARF-1 on a CLARIOstar® multimode microplate reader (BMG LABTECH). 20 μL of the samples used for fluorescence measurement were transferred into clear polystyrene flat-bottom 96-well plates (Thermo Fisher Scientific) and protein concentration was determined.
All compounds were acquired from Sigma-Aldrich as solid powders and 10 mM stocks were made either in DMSO or HBSS (see Table 1). Serial dilutions of the compounds were made using 3.162-fold […] dilution factor either with DMSO or HBSS at the concentrations 1,000 higher than the final concentrations in the assay. […]
as §3
(§6) Using uninhibited normalized uptake values obtained with HEK293-OATP2A1 and HEK293-VC-Neo cells in 0.1% DMSO in HBSS as the high and low controls of the assay, the % Control and % Inhibition values were calculated as follows: […]
The IC50 values were calculated from non-linear 4-parameter fit of the % Inhibition values vs. concentration of the inhibitors using GraphPad Prism 5 software. […]

OATP2A1 [4] = molecular target: T1, OATP2A1; test: OATP2A1 inhibition assay, cellular uptake of 5,6-Carboxy-SNARF with HEK293-OATP2A1 cells; format: cell-based; details: HEK293-OATP2A1 cells, 5,6-Carboxy-SNARF substrate, pH 7.4
Method: as §1, §5
All compounds were acquired from Sigma-Aldrich as solid powders and 10 mM stocks were made either in DMSO or HBSS (see Table 1). Serial dilutions of the compounds were made using 3.162-fold […] dilution factor either with DMSO or HBSS at the concentrations 1,000 higher than the final concentrations in the assay. These 1,000× solutions were further diluted 1:100 with HBSS in 2-mL polypropylene deep 96-well block (VWR) to make 10× working stock solutions of the inhibitors.
HEK293-OATP2A1 and HEK293-VC-Neo cells were cultured. The media was aspirated and 800 μL of HBSS was added to each well followed by the addition of 100 μL of the 10× working stock solutions of the inhibitors. The plates were incubated for 5 min at RT, and the assay was started by the addition of 100 μL of either 100 μM 6-CF or 50 μM 5,6-carboxy-SNARF-1 in HBSS.
as §3, §6, §4

Row | Compound | IC50 (OATP2A1 [2]) | IC50 (OATP2A1 [3]) | IC50 (OATP2A1 [4]) | other results
1 | 5,6-Carboxy-seminaphthorhodafluor-1 [5,6-Carboxy-SNARF] | – | – | – | S:B in uptake assay (OATP2A1 [1]; HEK293-OATP2A1 cell line, time-course, pH 7.5 (FIG. 6A)): 142; initial rate of the uptake (OATP2A1 [1]; HEK293-OATP2A1 cells, first 30 min of the assay (FIG. 6A, pH 7.5)): 99.1 pmol/mg/min; Km (OATP2A1 [1]; OATP2A1-mediated uptake in HEK293-OATP2A1 cell line, Michaelis-Menten fit (FIG. 5)): 29 ± 9 µM; transporter specificity (OATP2A1 [1]; OATP2A1 vs. OATP2B1 transporters (FIG. 4A)): specific for OATP2A1 vs. OATP2B1; initial rate of the uptake (HEK293-VC-Neo cells): 0.7 pmol/mg/min
2 | O=C(O)c1ccc2c(c1)C1(OC2=O)c2ccc(O)cc2Oc2cc(O)ccc21 [Compound 6-CF, 6-Carboxyfluorescein] | – | – | – | rate of uptake by HEK293-OATP2A1 cell line compared to the control cells (OATP2A1 [1]; FIG. 2, vs vector control cells HEK-VC-Neo): ≥ 230 fold; uptake by HEK293-OATP2A1 cell line vs rate of uptake by the control cells (OATP2A1 [1]; pH 6.5 (FIG. 6B)): 233 times; uptake by HEK293-OATP2A1 cell line vs rate of uptake by the control cells (OATP2A1 [1]; sentence following the initial rates of FIG. 6A): more than 1400 times
3 | CCCCc1nc(Cl)c(CO)n1Cc1ccc(-c2ccccc2-c2nn[nH]n2)cc1 [Losartan] | 1760 nM | 1280 nM | 1210 nM | –
4 | CCCc1nc(C(C)(C)O)c(C(=O)O)n1Cc1ccc(-c2ccccc2-c2nnn[nH]2)cc1 [Olmesartan] | 970 nM | 492 nM | 554 nM | –
5 | O=C(Nc1cccc2c(=O)cc(-c3nnn[nH]3)oc12)c1ccc(OCCCCc2ccccc2)cc1 [Pranlukast] | 550 nM | 142 nM | 148 nM | –
6 | Cc1ccc(C(=O)Nc2ccc(S(=O)(=O)O)c3cc(S(=O)(=O)O)cc(S(=O)(=O)O)c23)cc1NC(=O)c1cccc(NC(=O)Nc2cccc(C(=O)Nc3cc(C(=O)Nc4ccc(S(=O)(=O)O)c5cc(S(=O)(=O)O)cc(S(=O)(=O)O)c45)ccc3C)c2)c1 [Suramin] | 170 nM | 222 nM | 186 nM | –
7 | COc1cc(C(=O)NS(=O)(=O)c2ccccc2C)ccc1Cc1cn(C)c2ccc(NC(=O)OC3CCCC3)cc12 [Zafirlukast] | 1600 nM | – | 1110 nM | –
